Laboratory results taken from PMC4929455 (2016).
Where a SMILES comes first, the peptide text is derived from it.

Key:
[1] = system: T:A (DNA, duplex) TCACCAGTCGTA/TACGACTGGTGA; experiment: CD forward titration, ICD at 500 nm; conditions: 100 mM NaCl; 10 mM sodium phosphate pH 7.0, 1 mM EDTA, 15 °C; apparent; non-specific binding
[2] = system: T:THF (DNA, mismatch bulge abasic, tetrahydrofuran (THF) abasic analogue at 6 of strand 1, opposite T) TCACCNGTCGTA/TACGACTGGTGA; experiment: CD forward titration, ICD at 500 nm; conditions: 100 mM NaCl, 10 mM sodium phosphate pH 7.0, 1 mM EDTA, 15 °C, apparent
[3] = system: T:AP (DNA, mismatch bulge abasic, natural apurinic/apyrimidinic site (from dU by UDG) at 6 of strand 1, opposite T) TCACCNGTCGTA/TACGACTGGTGA; experiment: CD forward titration, ICD at 500 nm; conditions: 100 mM NaCl; 10 mM sodium phosphate pH 7.0, 1 mM EDTA, 15 °C; apparent; corrected for non-specific interactions (uncorrected 44 ± 5)
[4] = system: dU-containing oligodeoxynucleotide 5'-TCA(dU)CGT-3' (DNA, single strand, 2'-deoxyuridine at 4) TCAUCGT; experiment: cyanoborohydride trapping, denaturing gel shift; conditions: 100 mM Hepes-K pH 7.3, 50 mM NaB(CN)H3, 18 °C overnight; 10 μM C1; covalent trapping only
[5] = system: T:A (DNA, duplex) TCACCAGTCGTA/TACGACTGGTGA; experiment: UV melting at 260 nm; conditions: 100 mM NaCl; 10 mM sodium phosphate pH 7.0, 1 mM EDTA; 5 μM DNA, 5 μM C1
[6] = system: AP site-containing oligodeoxynucleotide (32P-labeled) (DNA, single strand, natural AP site (from dU by UDG) at 4) TCANCGT; experiment: cyanoborohydride trapping, denaturing gel shift; conditions: 100 mM Hepes-K pH 7.3, 50 mM NaB(CN)H3, 18 °C overnight, covalent
[7] = system: T:THF (DNA, mismatch bulge abasic, tetrahydrofuran (THF) abasic analogue at 6 of strand 1, opposite T) TCACCNGTCGTA/TACGACTGGTGA; experiment: UV melting at 260 nm; conditions: 100 mM NaCl; 10 mM sodium phosphate pH 7.0, 1 mM EDTA; 5 μM DNA, 5 μM C1
[8] = system: AP site-containing oligodeoxynucleotide (unlabeled) (DNA, single strand, natural AP site (from dU by UDG) at 4) TCANCGT; experiment: ESI-MS / CID of reduced covalent complex; conditions: 100 mM Hepes-K pH 7.3, 50 mM NaB(CN)H3, 37 °C overnight

SMILES	KD [1]	KD ([2]; corrected for non-specific interactions (uncorrected 35 ± 1))	KD [3]	KD ([2]; corrected for non-specific interactions (uncorrected 29 ± 1))	binding [4]	ΔTm [5]	binding ([6]; 10 μM C1, ~80% trapped)	ΔTm [7]	binding [8]	binding ([6]; 2 mM KWKK)
COc1cc[nH]c1/C=C1\C(=O)Nc2ccc(F)c(C#CC3(O)CCNCC3)c21	69 ± 14 µM	28 ± 1 µM	28 ± 2 µM							
CNCC#Cc1c(F)ccc2c1/C(=C/c1[nH]ccc1OC)C(=O)N2	64 ± 3 µM			22 ± 1 µM	no	1 °C	yes	6.3 °C	yes	
NCCCC[C@H](NC(=O)[C@H](CCCCN)NC(=O)[C@H](Cc1c[nH]c2ccccc12)NC(=O)[C@@H](N)CCCCN)C(=O)O (H-KWKK-OH)										yes
